Laboratory results taken from US7678791B2, “Nitroheteroaryl-containing rifamycin derivatives” (Cumbre IP Ventures, L.P., priority 2006, dated 2010).
≈ marks a conversion by molar mass, not a printed value.

Tested on: Mycobacterium tuberculosis H37Rv (rif-resistant)
Test: microbe, parasite or virus in culture
Assay type: cell-based

**Q.** What does the source list for `CO[C@H]1/C=C/O[C@@]2(C)Oc3c(C)c(O)c4c(c3C2=O)C2=NC3(CCN(CCn5c([N+](=O)[O-])cnc5C)CC3)NC2=C(NC(=O)/C(C)=C\C=C\[C@H](C)[C@H](O)[C@@H](C)[C@@H](O)[C@@H](C)[C@H](OC(C)=O)[C@@H]1C)C4=O` [Example 1, 4-Deoxy-3,4-[2-spiro-[1-[2-(2-methyl-5-nitro-imidazol-1-yl)ethyl]-piperidin-4-yl]]-(1H)-imidazo-(2,5-dihydro)rifamycin S]?
**A.** antimicrobial activity in words, rifampin-resistant M. tuberculosis: retains activity; MIC (Mycobacterium tuberculosis, H37RV): 5 µg/mL (≈ 5.3 µM)
